SMILES strings stand for the structures. Where a name gives a salt, the structure may show the parent alone.

Data set [1] can be described thus: In vitro release study of vitamin C, dialysis set up. Type of data set: physicochemical. As to conditions: after 8 h, PBS pH 7.4, 37° C. As to the method:
The comparative in vitro release study of vitamin C encapsulated in the inventive liposome versus and non-encapsulated vitamin C (control) was performed using the dialysis set up. […] A weighed quantity of encapsulated vitamin C (50 mg) was suspended in 10 mL of PBS and transferred into the dialysis bag (donor compartment). […] A control experiment was performed simultaneously in which unencapsulated vitamin C solution was dialyzed. […] The absorbance of the samples was measured at 295 nm. The concentration of vitamin C in the samples was determined using a standard curve.

Data set [2] in a line: Pharmacokinetics of ursolic acid after single oral dose. As to conditions: ursolic acid in rat plasma.
For data set [3] the following is noted: after 3 h; dialysis, PBS pH 7.4, 37° C.
Method: The comparative in vitro release study of caffeine encapsulated in the inventive liposome versus plain caffeine (control) was performed using a dialysis set up. Prior to the diffusion experiment, the cellulose acetate dialysis membrane (Sigma Aldrich, Molecular weight cut-off (MWCO) 12 kDa) was soaked in phosphate buffered saline (PBS, pH 7.4) for 12 h. A weighed quantity of liposomal caffeine (50 mg) was suspended in 10 mL of PBS and transferred into the dialysis bag (donor compartment). The dialysis bag was placed in a beaker containing 100 mL of PBS (receptor compartment). The setup was incubated at 120 rpm for 8 h in a 37° C. shaker incubator.
A control experiment was performed simultaneously in which a plain caffeine solution was dialyzed. A 1 mL aliquot of PBS in the receptor compartment was sampled at different time points and an equal quantity of fresh PBS was replaced in the compartment after each withdrawal. The caffeine content in the samples were quantified using HPLC.
Data set [4] is described as follows: in vivo. The note with it: male, Wistar, rat, plasma, po, 60 mg/kg.
Data set [5] is described as follows: Comparative oral bioavailability of vitamin C, crossover study in healthy volunteers. The note with it: human, in vivo. The protocol:
The inventive liposome comprised at least 40% w/w Vitamin C.
A group of 12 healthy volunteers were screened on Visit 1 to confirm their eligibility. Subjects fulfilling the eligibility criteria were randomized into 1 of 2-treatment sequences on Visit 2. There was a washout period of 7 days each between the 2 dosing days. […] Subjects returned to the study center for the second period. On the morning of Day 1, in each period, subjects in a fasting state (at least 10 hours before dosing) received one 600 mg capsule orally of their assigned formulation (Table 2) as per randomization scheme, with 200±2 mL of water at room temperature. The study duration was approximately 12 days (2 dosing days and 1 washout period of 7±1 days). A total of 10 blood samples were collected in each of the two study periods. The pre-dose samples (2 mL) were collected within 1 hour before dosing. The post-dose samples (1×2 mL) were collected at 30 min, 60 min, 2, 3, 4, 5, 6, 8 and 12 hours after dosing in vacuum tubes containing K2 EDTA. All blood samples were collected from an ante-cubital vein or any suitable forearm vein using an indwelling cannula. Before each blood sample is drawn, 1 mL of blood was discarded so as to prevent the saline diluted blood and heparin from interfering with the analysis.
Plasma concentrations were measured using ultra performance liquid chromatographyelectrospray ionization-tandem mass spectrometry (UPLC-ESI-MS/MS), gas chromatography mass spectrometry (GC-MS/MS) and High-Performance Liquid Chromatography (HPLC). All the pharmacokinetic parameters were compared between the two treatment groups using Pair-t-test with 5% level of significance. All statistical analysis was performed using R statistical software version 4.2.1.

Data set [6] can be described thus: Pharmacokinetic study of berberine after single oral dose. The note with it: male, Wistar, berberine in rat plasma. The class given is in vivo, Wistar rats.
Data set [7] in a line: In vitro release study of berberine, dialysis set up. As to conditions: after 6 h, pH 7.4. The class given is physicochemical.
Data set [8] in a line: In vitro release study of glutathione, dialysis set up. The class given is physicochemical. The note with it: after 7 h, pH 7.4. As to the method:
The comparative in vitro release study of glutathione encapsulated in the inventive liposome and non-encapsulated glutathione (control) was performed using the dialysis set up. […] A control experiment was performed simultaneously in which the non-encapsulated glutathione solution was dialyzed. […] The concentration of glutathione in the samples was determined using the validated HPLC method.
The mobile phase consisted of 50 mM phosphate buffer. The injection volume was 5 μL. The detection was carried out at 230 nm.

With `C[C@H]1[C@H](C)CC[C@]2(C(=O)O)CC[C@]3(C)C(=CC[C@@H]4[C@@]5(C)CC[C@H](O)C(C)(C)[C@@H]5CC[C@]43C)[C@H]12` [Control, ursolic acid], the “vitamin C released” value in data set [1] turned out to be 67.54%. Besides, in data set [2], the Kel came out at 0.15 ± 0.004 h⁻¹ and the “maximum plasma concentration of UA” value came out at 201 ± 42.43 ng/mL. For the same molecule, the Kel in data set [2] (listed as control) is 0.15 ± 0.004 h⁻¹. In data set [3], the caffeine released is on record as 100%. In data set [4], the AUC(0-t) is 877 ± 44.6 ng·h/mL, the peak level (Cmax) was 201 ± 42.4 ng/mL, the Tmax turned out to be 0.75 ± 0.35 h and the half-life is 4.49 ± 0.11 h.
`O=C1O[C@H]([C@@H](O)CO)C(O)=C1O` [unformulated Vitamin C, vitamin C] showed an AUC(0-inf) in data set [5] of 6260 ± 4560 ng·h/mL. The molecule also yielded an AUC(0-t) in data set [5] of 4130 ± 1740 ng·h/mL. In data set [5], the Cmax was 970 ng/mL. In addition, the MRT in data set [5] turned out to be 9.3 ± 8.42 h. For the same molecule, the Tmax in data set [5] was determined as 2.67 ± 1.07 h. In addition, the “Plasma concentration of vitamin C, Mean” value in data set [5] (0.5 h) was 219.99; in data set [5] (1 h) it was 502.39; in data set [5] (2 h), 728.44; in data set [5] (3 h) it was 680.46; in data set [5] (4 h), 456.28; in data set [5] (5 h) it was 405.53. The figures for the “Plasma concentration of vitamin C, Mean” value in data set [5] (6 h), in data set [5] (8 h) and in data set [5] (12 h) were 338.54, 219.14 and 162.08, respectively.
Consider `COc1ccc2cc3[n+](cc2c1OC)CCc1cc2c(cc1-3)OCO2` [Control (Unformulated), berberine HCl], for which, in data set [6] (320 mg/kg, single oral dose), the AUC(0-t) is 410 ± 40 ng·h/mL and the Tmax came out at 0.25 h. Moreover, in data set [6] (320 mg/kg, single oral dose, read-out: t½ (converted)), the half-life was 7.32 ± 0.61 h. This molecule also gave a Cmax in data set [6] (single oral dose (600 mg/kg encapsulated; 320 mg/kg berberine HCl)) of 15.5 ± 9.66 ng/mL. Further, in data set [7], the “berberine cumulative release %” value was 100%.
Take `N[C@@H](CCC(=O)N[C@@H](CS)C(=O)NCC(=O)O)C(=O)O` [non-encapsulated glutathione, glutathione]: in data set [8], the “glutathione cumulative release %” value is 96.86%.

For the origin of these results see patent US20240374560A1, “FIBER-ENHANCED LIPOSOME AND METHODS” (Vidya Herbs, Inc., priority 2023, published 2024).
